Experiments:
[1] = target: T1, human muscarinic M4 receptor (Homo sapiens, UniProt P08173); assay: Alphascreen Surefire phospho-ERK1/2 functional assay, M4; type: cell-based; conditions: for % Emax cf. ACh, M4: CHO cells stably expressing human M4, relative to ACh; for EC50: CHO cells stably expressing human M4, read-out: pEC50 M4 (converted)
T1 construct: expressed in transfected cells
T1 sequence (P08173 1-479): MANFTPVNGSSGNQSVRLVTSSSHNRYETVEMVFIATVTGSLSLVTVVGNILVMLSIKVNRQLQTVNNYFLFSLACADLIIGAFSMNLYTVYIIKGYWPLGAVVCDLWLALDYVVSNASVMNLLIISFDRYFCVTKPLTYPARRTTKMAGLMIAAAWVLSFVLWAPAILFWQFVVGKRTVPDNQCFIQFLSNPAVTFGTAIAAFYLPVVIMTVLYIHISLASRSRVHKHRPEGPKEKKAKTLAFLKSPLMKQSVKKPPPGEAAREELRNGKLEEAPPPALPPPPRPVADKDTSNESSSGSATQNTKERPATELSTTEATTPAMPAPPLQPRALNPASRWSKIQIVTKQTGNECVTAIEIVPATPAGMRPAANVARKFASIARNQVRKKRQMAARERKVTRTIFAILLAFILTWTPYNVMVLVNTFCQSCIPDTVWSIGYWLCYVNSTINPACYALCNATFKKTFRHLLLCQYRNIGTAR

[2] = target: T2, human muscarinic M2 receptor (Homo sapiens, UniProt P08172); assay: Alphascreen Surefire phospho-ERK1/2 functional assay, M2; type: cell-based; conditions: for % Emax cf. ACh, M2: CHO cells stably expressing human M2, relative to ACh; for Emax: CHO, read-out: % Emax cf. ACh, M2, CHO cells stably expressing human M2, relative to ACh; for EC50: CHO cells stably expressing human M2, read-out: pEC50 M2 (converted)
T2 sequence (P08172 1-466): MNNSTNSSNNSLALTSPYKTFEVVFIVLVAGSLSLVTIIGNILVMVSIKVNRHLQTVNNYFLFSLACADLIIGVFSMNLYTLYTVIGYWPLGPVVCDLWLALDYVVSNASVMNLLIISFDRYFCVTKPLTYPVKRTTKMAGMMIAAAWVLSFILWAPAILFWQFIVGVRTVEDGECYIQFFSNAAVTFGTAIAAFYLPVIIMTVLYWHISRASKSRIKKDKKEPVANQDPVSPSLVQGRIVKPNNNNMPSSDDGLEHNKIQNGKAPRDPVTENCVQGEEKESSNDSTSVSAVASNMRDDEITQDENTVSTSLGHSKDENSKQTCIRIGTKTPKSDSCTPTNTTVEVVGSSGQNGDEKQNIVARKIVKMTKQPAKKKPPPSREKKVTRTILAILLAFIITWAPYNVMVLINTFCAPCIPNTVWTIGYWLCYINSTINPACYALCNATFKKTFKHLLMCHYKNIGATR

[3] = tested on: scopolamine-induced amnesia; assay: Passive avoidance, scopolamine-induced amnesia; type: in vivo; conditions: 90 minutes prior to training
Experimental: Studies were carried out as described previously by Foley et al., (2004) Neuropsychopharmacology. In the passive avoidance task scopolamine administration (1 mg/kg, i.p.) at 6 hours following training rendered animals amnesic of the paradigm. A dose range of 3, 10, and 30 mg/kg (po) free base, administered 90 minutes prior to the training period via oral gavage, was examined.

[4] = target: T3, human muscarinic M3 receptor (Homo sapiens, UniProt P20309); assay: Alphascreen Surefire phospho-ERK1/2 functional assay, M3; type: cell-based; conditions: for % Emax cf. ACh, M3: CHO cells stably expressing human M3, relative to ACh; for EC50: CHO cells stably expressing human M3, read-out: pEC50 M3 (converted)
T3 construct: expressed in transfected cells

[5] = target: T4, human muscarinic M1 receptor (Homo sapiens, UniProt P11229); assay: Alphascreen Surefire phospho-ERK1/2 functional assay, M1; type: cell-based; conditions: for Emax: CHO, read-out: % Emax cf. ACh, M1, CHO cells stably expressing human M1, relative to ACh; for EC50: CHO cells stably expressing human M1, read-out: pEC50 M1 (converted); for % Emax cf. ACh, M1: CHO cells stably expressing human M1, relative to ACh
T4 sequence (P11229 1-460): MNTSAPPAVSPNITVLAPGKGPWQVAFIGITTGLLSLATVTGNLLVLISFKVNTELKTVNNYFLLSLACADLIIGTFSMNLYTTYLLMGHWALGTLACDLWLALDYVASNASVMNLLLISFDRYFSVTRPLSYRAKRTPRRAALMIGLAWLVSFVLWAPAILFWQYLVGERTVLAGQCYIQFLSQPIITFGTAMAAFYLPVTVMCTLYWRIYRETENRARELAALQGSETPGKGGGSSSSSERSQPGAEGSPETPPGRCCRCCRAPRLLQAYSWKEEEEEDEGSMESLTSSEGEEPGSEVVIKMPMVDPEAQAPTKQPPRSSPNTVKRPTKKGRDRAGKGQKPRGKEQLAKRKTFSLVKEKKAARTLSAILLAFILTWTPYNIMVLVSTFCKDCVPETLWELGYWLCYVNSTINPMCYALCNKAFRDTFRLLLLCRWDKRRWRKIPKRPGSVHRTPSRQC

T3 sequence (P20309 whole entry): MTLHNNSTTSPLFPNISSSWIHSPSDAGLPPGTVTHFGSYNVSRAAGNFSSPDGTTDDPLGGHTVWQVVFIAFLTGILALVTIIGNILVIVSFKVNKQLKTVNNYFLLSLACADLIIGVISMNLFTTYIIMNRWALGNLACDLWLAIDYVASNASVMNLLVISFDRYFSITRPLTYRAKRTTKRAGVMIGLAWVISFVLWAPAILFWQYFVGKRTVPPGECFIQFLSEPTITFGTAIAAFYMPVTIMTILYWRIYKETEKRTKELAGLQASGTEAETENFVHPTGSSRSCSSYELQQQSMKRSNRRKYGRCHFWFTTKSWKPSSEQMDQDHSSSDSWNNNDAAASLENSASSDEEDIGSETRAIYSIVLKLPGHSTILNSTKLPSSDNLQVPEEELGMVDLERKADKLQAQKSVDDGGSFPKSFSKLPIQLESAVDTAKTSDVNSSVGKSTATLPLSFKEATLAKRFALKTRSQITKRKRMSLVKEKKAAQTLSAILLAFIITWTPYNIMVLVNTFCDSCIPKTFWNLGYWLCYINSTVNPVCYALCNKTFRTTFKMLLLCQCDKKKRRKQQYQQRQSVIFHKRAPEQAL

Row | SMILES | % Emax cf. ACh, M2 [2] | Emax [2] | Emax [5] | EC50 [1] | EC50 [2] | EC50 [4] | EC50 [5] | also measured
1 | CCOC(=O)N1C2CCC1CC(N1CCC3(CC1)CNC(=O)C3)C2 (single isomer, unassigned) [Example 2-2 Isomer 1, ethyl 3-(3-oxo-2,8-diazaspiro[4.5]dec-8-yl)-8-azabicyclo[3.2.1]octane-8-carboxylate] | 0% | – | – | – | – | – | – | % Emax cf. ACh, M4 ([1]; listed as 2-2 Isomer 1): 53%; reversal of scopolamine-induced amnesia in passive avoidance ([3]; 3, 10 and 30 mg/kg po free base, scopolamine 1 mg/kg i.p.): reverse scopolamine-induced amnesia of the paradigm in a dose-dependent manner; ED50 ([3]; po, scopolamine 1 mg/kg i.p. 6 hours following training, read-out: approximate ED50, reversal of scopolamine-induced amnesia): ~10 mg/kg; % Emax cf. ACh, M3 ([4]; listed as 2-2 Isomer 1): 17%
2 | CCOC(=O)N1C2CCC1CC(N1CCC3(CC1)CNC(=O)C3)C2 (single isomer, unassigned) [Example 2-2 Isomer 2, ethyl 3-(3-oxo-2,8-diazaspiro[4.5]dec-8-yl)-8-azabicyclo[3.2.1]octane-8-carboxylate] | – | 0% | 86% | – | – | – | – | % Emax cf. ACh, M4 ([1]; listed as 2-2 Isomer 2): 31%; % Emax cf. ACh, M3 ([4]; listed as 2-2 Isomer 2): 0%
3 | CCOC(=O)N1C2CCC1CC(N1CCC3(CC1)CC(=O)NC3CC)C2 (single isomer, unassigned) [Example 2-8 Isomer 1, ethyl 3-(1-ethyl-3-oxo-2,8-diazaspiro[4.5]decan-8-yl)-8-azabicyclo[3.2.1]octane-8-carboxylate] | – | 4% | – | > 20000 nM | > 20000 nM | 12600 nM | 20 nM | % Emax cf. ACh, M4 ([1]; listed as 2-8 Isomer 1): 23%; % Emax cf. ACh, M3 ([4]; listed as 2-8 Isomer 1): 50%; % Emax cf. ACh, M1 ([5]; listed as 2-8 Isomer 1): 52%
4 | CCOC(=O)N1C2CCC1CC(N1CCC3(CC1)CC(=O)NC3Cc1ccccc1)C2 (single isomer, unassigned) [Example 2-10 Isomer 1] | – | – | 74% | 79.4 nM | > 20000 nM | > 20000 nM | 20 nM | % Emax cf. ACh, M4 ([1]; listed as 2-10 Isomer 1): 21%; % Emax cf. ACh, M2 ([2]; listed as 2-10 Isomer 1): 1%; % Emax cf. ACh, M3 ([4]; listed as 2-10 Isomer 1): 5%
5 | C#CCOC(=O)N1C2CCCC1CC(N1CCC3(CC1)CNC(=O)C3)C2 (single isomer, unassigned) [Example 5-2 Isomer 2, prop-2-yn-1-yl 3-(3-oxo-2,8-diazaspiro[4.5]dec-8-yl)-9-azabicyclo[3.3.1]nonane-9-carboxylate] | 3% | – | – | 63.1 nM | – | – | – | % Emax cf. ACh, M4 [1]: 20%; % Emax cf. ACh, M3 ([4]; listed as 5-2 Isomer 2): 4%; % Emax cf. ACh, M1 ([5]; listed as 5-2 Isomer 2): 48%

— patent US12202843B2, “Muscarinic receptor agonists” (Nxera Pharma UK Limited, priority 2014, dated 2025)
